Assay results: paper PMC6222789, “CF3-Substituted Mollugin 2-(4-Morpholinyl)-ethyl ester as a Potential Anti-inflammatory Agent with Improved Aqueous Solubility and Metabolic Stability” (Molecules : A Journal of Synthetic Chemistry and Natural …, 2018)

Tests used:
[1] = Metabolic stability, mouse liver microsomes; type: in vitro ADME; details: 30 min, 1 μM
Experimental: (§1) Pooled human liver microsomes (150 donor) and dog, rat, mouse liver microsomes were obtained from BD Gentest Co. (Woburn, MA, USA). NADPH regeneration system was obtained from Promega. S-Mephenytoin, 4-hydroxymephenytoin, and 1’-hydroxymidazolam were purchased from Ultrafine Chemical Co. (Manchester, UK). All other chemicals and solvents were of the highest grade available. The metabolic stability assay was performed by incubation of human or selected animal liver microsomes (most often dog, rat and mouse), at 37 °C with a test compound at a final concentration of 1 μM, in the presence of 0.5 mg/mL microsomal protein and NADPH regeneration system, in a total volume of 100 μL of 100 mM phosphate buffer, pH 7.4. The incubation was started by the addition of NADPH regeneration system and terminated with 40 μL of ice-cold acetonitrile at 0 and 30 min. Precipitated proteins were removed by centrifugation at 10,000× g for 5 min at 4 °C. Aliquots of the supernatant were injected onto an LC-MS/MS system. Incubations terminated prior to the addition of NADPH regeneration system (time point 0 min) were used as standards, defined as 100%. Percent of the parent compound remaining was calculated by comparing peak area.

[2] = test system: IL-6-induced adhesion of U937 monocytic cells to HT-29 cells; assay: IL-6-induced colonic epithelial cell adhesion assay; type: cell-based, human; details: for inhibition at 10 µM: Homo sapiens, Epithelial cell, U937 adhesion to HT-29 cells, IL-6-induced; for inhibition of IL-6-induced monocyte-epithelial adhesion: 10 μM
Experimental: (§2) Synthesized mollugin derivatives were subjected to the colonic epithelial cell adhesion assay, which mimics the initial stage of colon inflammation. The inhibition of TNF-α-induced or IL-6-induced adhesion of U937 monocytic cells to HT-29 cells in 10 μM solution of synthesized molecules was measured, and the results are summarized in Table 1 and Table 2. Mesalazine (2), a commercially available medication for the treatment of IBD, and mollugin were chosen as assay positive controls.
(§3) HT-29 human colonic epithelial cells and U937 human pre-monocytic cells were grown in RPMI 1640 medium supplemented with 10% FBS, 100 IU/mL penicillin, and 100 µg/mL streptomycin in a humidified incubator under 5% CO2/95% air.
(§4) U937 monocytic cell adhesion to colonic epithelial cells was evaluated using human U937 pre-monocytic cells, which were prelabeled with 2′,7′-bis(2-carboxyethyl)-5(6)-carboxyfluorescein acetoxymethyl ester (BCECF/AM, 10 μg/mL) for 1 h at 37 °C. HT-29 cells cultured in 24-well plates were pretreated with test compound, 5-ASA, or tofacitinib for 1 h prior to incubation with TNF-α (10 ng/mL) and IL-6 (5 ng/mL) for an additional 3 h. Cells were then co-incubated with BCECF/AM-prelabeled U937 cells (1 × 10^6 cells/well) for 30 min at 37 °C. Non-adhering U937 cells were removed, and the HT-29 cells and adherent U937 cells were washed twice with PBS. Images were captured and processed with a Nikon ECLIPSE TE2000-U microscope and NIS-Elements F software (Nikon, Tokyo, Japan). For quantitative analysis, other sets of cells were lysed in 0.1% Triton X-100 in Tris (0.1 M), and the fluorescence was measured using a fluorescence-detecting microplate reader (Promega , Madison, WI, USA) at […]. Experiments were performed in triplicate and repeated at least three times independently.

[3] = Metabolic stability, dog liver microsomes; type: in vitro ADME; details: 30 min, 1 μM
Experimental: as §1

[4] = Metabolic stability, rat liver microsomes; type: in vitro ADME; details: 30 min, 1 μM
Experimental: as §1

[5] = Metabolic stability, human liver microsomes; type: in vitro ADME; details: 1 μM
Experimental: as §1

[6] = test system: TNF-α-induced adhesion of U937 monocytic cells to HT-29 cells; assay: TNF-α-induced colonic epithelial cell adhesion assay; type: cell-based, human; details: for inhibition at 10 µM: Homo sapiens, Epithelial cell, U937 adhesion to HT-29 cells, TNF-α-induced; for inhibition of TNF-α-induced monocyte-epithelial adhesion: 10 μM
Experimental: as §2, §3, §4

[7] = Plasma stability, rat plasma; type: in vitro ADME; details: 2 h, 37 °C, 1 μM
Experimental: (§5) The plasma stability assay was performed by incubation of human or rat plasma with a test compound in a final concentration of 1 μM for 120 min at 37 °C. The incubation was terminated by addition of 40 μL of ice-cold acetonitrile and vortexing for 5 min. The precipitated proteins were removed by centrifugation at 14,000× g for 5 min at 4 °C. Aliquots of the supernatant were injected onto a Shimadzu Nexera XR LC system. Percentages of the parent compound remaining were calculated by comparing peak areas using the Xcalibur software (version 1.6.1, Waltham, MA, USA).

[8] = Plasma stability, human plasma; type: in vitro ADME; details: 37 °C, 1 μM
Experimental: as §5

| Compound | Metabolic Stability (% Remain, 30 min) Mouse [1] [% Remain] | Metabolic Stability (% Remain, 30 min) Dog [3] [% Remain] | Metabolic Stability (% Remain, 30 min) Rat [4] [% Remain] | Metabolic Stability (% Remain, 30 min) Human [5] [% Remain] | Plasma Stability (% Remain, 2 h) Rat [7] [% Remain] | Plasma Stability (% Remain, 2 h) Human [8] [% Remain] | inhibition at 10 µM [2] [%] | inhibition at 10 µM [6] [%] | inhibition of IL-6-induced monocyte-epithelial adhesion [2] | inhibition of TNF-α-induced monocyte-epithelial adhesion [6] |
| --- | --- | --- | --- | --- | --- | --- | --- | --- | --- | --- |
| CN(C)CCOC(=O)c1c2c(c3ccccc3c1O)OC(C)(C)C=C2 [6a, 2-(Dimethylamino)ethyl 6-hydroxy-2,2-dimethyl-2H-benzo[h]chromene-5-carboxylate] | 3 | 2 | 2 | 6 |  |  | 35.5 ± 4.3 | 38 ± 4.9 |  |  |
| CN(C)CCCOC(=O)c1c2c(c3ccccc3c1O)OC(C)(C)C=C2 [6b, 3-(Dimethylamino)propyl 6-hydroxy-2,2-dimethyl-2H-benzo[h]chromene-5-carboxylate] | 8 | 9 | 7 | 12 |  |  | 34.8 ± 4.1 | 39.6 ± 2.9 |  |  |
| CC1(C)C=Cc2c(C(=O)OCCN3CCCC3)c(O)c3ccccc3c2O1 [6c, 2-(Pyrrolidin-1-yl)ethyl 6-hydroxy-2,2-dimethyl-2H-benzo[h]chromene-5-carboxylate] |  |  |  |  |  |  | 12.4 ± 2.1 | 39.7 ± 5.7 | reduced % inhibition | good % inhibition |
| CC1(C)C=Cc2c(C(=O)OCCc3ccccn3)c(O)c3ccccc3c2O1 [6j, 2-(Pyridin-2-yl)ethyl 6-hydroxy-2,2-dimethyl-2H-benzo[h]chromene-5-carboxylate] |  |  |  |  |  |  | 33.6 ± 5.9 | 43.1 ± 6.2 |  |  |
| CC1(C)C=Cc2c(C(N)=O)c(O)c3ccccc3c2O1 [6k, 6-Hydroxy-2,2-dimethyl-2H-benzo[h]chromene-5-carboxamide] | 2 | 6 | 2 | 10 |  |  | 39.1 ± 4.7 | 42.6 ± 4.2 |  |  |
| CNC(=O)c1c2c(c3ccccc3c1O)OC(C)(C)C=C2 [6l, 6-Hydroxy-N,2,2-trimethyl-2H-benzo[h]chromene-5-carboxamide] | 2 | 1 | 1 | 13 |  |  | 12.2 ± 4.4 | 45.4 ± 4.7 |  |  |
| CCNC(=O)c1c2c(c3ccccc3c1O)OC(C)(C)C=C2 [6m, N-Ethyl-6-hydroxy-2,2-dimethyl-2H-benzo[h]chromene-5-carboxamide] |  |  |  |  |  |  | 25.8 ± 3.4 | 38.4 ± 5.7 |  |  |
| CN1CCN(C(=O)c2c3c(c4ccccc4c2O)OC(C)(C)C=C3)CC1 [6n, (6-Hydroxy-2,2-dimethyl-2H-benzo[h]chromen-5-yl)(4-methylpiperazin-1-yl)methanone] |  |  |  |  |  |  | 34.2 ± 7.9 | 37.4 ± 3.3 |  |  |
| CCN1CCN(C(=O)c2c3c(c4ccccc4c2O)OC(C)(C)C=C3)CC1 [6o] |  |  |  |  |  |  | 9.4 ± 2.1 | 46.2 ± 5.4 | reduced % inhibition | good % inhibition |
| COC(=O)c1c2c(c3cc(F)ccc3c1O)OC(C)(C)C=C2 [14d, Methyl 9-fluoro-6-hydroxy-2,2-dimethyl-2H-benzo[h]chromene-5-carboxylate] |  |  |  |  |  |  | 28 ± 5.6 | 24.9 ± 8.1 |  |  |

Further lines, with some results ahead:

| Metabolic Stability (% Remain, 30 min) Mouse [1] [% Remain] | Metabolic Stability (% Remain, 30 min) Dog [3] [% Remain] | Metabolic Stability (% Remain, 30 min) Rat [4] [% Remain] | Metabolic Stability (% Remain, 30 min) Human [5] [% Remain] | Plasma Stability (% Remain, 2 h) Rat [7] [% Remain] | Plasma Stability (% Remain, 2 h) Human [8] [% Remain] | Compound | inhibition at 10 µM [2] [%] | inhibition at 10 µM [6] [%] | inhibition of IL-6-induced monocyte-epithelial adhesion [2] | inhibition of TNF-α-induced monocyte-epithelial adhesion [6] |
| --- | --- | --- | --- | --- | --- | --- | --- | --- | --- | --- |
| 82 | 52 | 78 | 52 | 2 | 39.5 | COC(=O)c1c2c(c3ccc(F)cc3c1O)OC(C)(C)C=C2 [14a, Methyl 8-fluoro-6-hydroxy-2,2-dimethyl-2H-benzo[h]chromene-5-carboxylate] | 59.4 ± 7.4 | 36.1 ± 7.6 |  |  |
| 19 | 4 | 51 | 88 | 1 | 100 | COC(=O)c1c2c(c3ccc(C)cc3c1O)OC(C)(C)C=C2 [14b, Methyl 6-hydroxy-2,2,8-trimethyl-2H-benzo[h]chromene-5-carboxylate] | 23.4 ± 2.5 | 29.8 ± 7.2 |  |  |
| 70 | 22 | 90 | 100 | 10 | 97 | COC(=O)c1c2c(c3ccc(C(F)(F)F)cc3c1O)OC(C)(C)C=C2 [14c, Methyl 6-hydroxy-2,2-dimethyl-8-(trifluoromethyl)-2H-benzo[h]chromene-5-carboxylate] | 39.3 ± 5.6 | 63.2 ± 10.8 |  |  |
| 10 | 10 | 9 | 78 | 91 | 100 | CC1(C)C=Cc2c(C(=O)OCCN3CCOCC3)c(O)c3cc(F)ccc3c2O1 [15a, 2-Morpholinoethyl 8-fluoro-6-hydroxy-2,2-dimethyl-2H-benzo[h]chromene-5-carboxylate] | 61.1 ± 10.9 | 36.6 ± 9.4 |  |  |
| 18 | 57 | 9 | 41 | 55 | 100 | Cc1ccc2c3c(c(C(=O)OCCN4CCOCC4)c(O)c2c1)C=CC(C)(C)O3 [15b, 2-Morpholinoethyl 6-hydroxy-2,2,8-trimethyl-2H-benzo[h]chromene-5-carboxylate] | 54.3 ± 6.5 | 24.9 ± 3.5 |  |  |
| 11 | 30 | 8 | 48 | 81 | 94 | CC1(C)C=Cc2c(C(=O)OCCN3CCOCC3)c(O)c3ccc(F)cc3c2O1 [15d, 2-Morpholinoethyl 9-fluoro-6-hydroxy-2,2-dimethyl-2H-benzo[h]chromene-5-carboxylate] | 75.6 ± 11.5 | 47 ± 8.9 |  |  |
